From patent publication US4333941A, “Inhibition of enveloped viruses with phenyl ketones” (The Dow Chemical Company, priority 1977, dated 1982)
Where a name gives a salt, the structure may show the parent alone. Read-outs that look alike come from different tables or passages of the source.

Experiments:
HSV-1 [1] = experiment: Inactivation of HSV-1, plaque assay on Vero or HeLa cells (Example 1); type: cell-based, herpes simplex virus type I; details: Human alphaherpesvirus 1, 1 h, one hour at 37° C., versus water control, read-out: Concentration Producing 50% Virus Inhibition
HSV-2 [2] = experiment: In vivo treatment of genital cutaneous mucosa infected with HSV-2 (Example 8); details: all the animals, including placebo and control
vaccinia virus = experiment: microbe, parasite or virus in culture; type: cell-based; details: Orthopoxvirus vaccinia, 1 h, read-out: concentration for 50 percent inactivation
HSV-1 [3] = experiment: Inactivation of two strains of HSV-1 (Example 3); details: Human alphaherpesvirus 1, 1 h, read-out: concentration for ninety nine percent inactivation
[4] = test system: VSV (vesicular stomatitis virus); experiment: microbe, parasite or virus in culture; type: cell-based; details: 1 h
mice = details: cited from earlier work
HSV-1 [5] = experiment: Inactivation of HSV-1 (Example 2); type: cell-based, herpes simplex virus type I; details: Human alphaherpesvirus 1, 1 h
[6] = test system: SFV (semliki forest virus); experiment: Inactivation of SFV (Example 2); type: cell-based; details: 1 h, one hour exposure, read-out: concentration for fifty percent inactivation
HSV-1, Stohr strain = experiment: In vivo treatment of HSV-1 skin infection in guinea pigs (Example 5); details: 2 percent in 5 percent ethanol, topical hourly
HSV-1 [7] = details: guinea pig, in vivo
influenza = experiment: Inactivation of influenza virus (Example 2); type: cell-based; details: unidentified influenza virus, 1 h
poliovirus = type: cell-based; details: poliovirus (picorna viruses)
HSV-2 [8] = experiment: Inactivation of one strain of HSV-2 (Example 3); details: Human alphaherpesvirus 2, 1 h, read-out: concentration for ninety nine percent inactivation
HSV-2 [9] = details: guinea pig, in vivo
rhinovirus = experiment: Inactivation of rhinovirus (Example 2); type: cell-based
[10] = test system: NDV (Newcastle's disease virus); experiment: organism not typed; type: cell-based; details: 1 h, read-out: concentration for fifty percent inactivation
[11] = read-out: concentration for fifty percent inactivation

**Q.** With `CCCCOc1ccc(C(=O)CC[N+]2(C)CCCCC2)cc1` [1-[2-(4-butoxybenzoyl)-ethyl]-1-methyl piperidinium iodide] as the compound, how does the IC50 (HSV-1 [1]) read?
**A.** The IC50 was less than 125 µM.

**Q.** Which IC50 (HSV-1 [1]) does the source give for `CCCOc1ccc(C(=O)CCN2CCCCC2)cc1` [4'-Propoxy-3-piperidino-propiophenone . HCl] here?
**A.** The IC50 was 400 µM.

**Q.** With `CCOc1ccc(N=C(C)Nc2ccc(OCC)cc2)cc1` [phenacaine . HCl] as the compound, how does the IC50 (HSV-1 [1]) read?
**A.** Its IC50 is greater than 2000 µM.

**Q.** Which IC50 (HSV-1 [1]) does the source give for `CCOc1ccc(C(=O)CCN2CCCCC2)cc1` [4'-Ethoxy-3-piperidino-propiophenone . HCl] here?
**A.** The IC50 was 1500 µM.

**Q.** With `CCCCOc1cc(C(=O)OCCN(CC)CC)ccc1N` [benoxinate . HCl] as the compound, how does the IC50 (HSV-1 [1]) read?
**A.** Its IC50 is greater than 2000 µM.

**Q.** For `CCN(CC)CCOC(=O)c1ccc(N)cc1` [procaine . HCl], which IC50 (HSV-1 [1]) is on record?
**A.** Its IC50 is greater than 2000 µM.

**Q.** Which IC50 (HSV-1 [1]) does the source give for `COc1ccc(C(=O)CCN2CCCCC2)cc1` [4-Methoxy-3-piperidino propiophenone . HCl] here?
**A.** Its IC50 is 125 µM.

**Q.** Which IC50 (HSV-1 [1]) does the source give for `O=C(CCN1CCCCC1)c1ccc(Cl)c(Cl)c1` [3',4'-Dichloro-3-piperidino-propiophenone . HCl] here?
**A.** The IC50 was less than 125 µM.

**Q.** With `CCOC(=O)c1ccc(N)cc1` [benzocaine] as the compound, how does the IC50 (HSV-1 [1]) read?
**A.** Its IC50 is greater than 2000 µM.

**Q.** For `CCCCOc1ccc(C(=O)CCN2CCCCC2)cc1` [Dyclonine . HCl, 4-n-butoxy-β-(1-piperidyl)-propiophenone hydrochloride], which hyperkeratosis (HSV-2 [2]) is on record?
**A.** Its hyperkeratosis is “hyperkeratosis was noted in all the animals”.

**Q.** And the IC50 (vaccinia virus)?
**A.** Its IC50 is no more than 2 mM.

**Q.** What about the IC99 (HSV-1 [3]) of the same compound?
**A.** Its IC99 is less than 1000 µM.

**Q.** And the IC50 [4, 11]?
**A.** Its IC50 is no more than 1 mM.

**Q.** What about the killing at 500 µM ([4]; read-out: inactivation of VSV) of the same compound?
**A.** The killing at 500 µM was greater than 99%.

**Q.** And the “acute LD50” value (mice; intraperitoneal injection)?
**A.** Its value is 52.8 mg/kg.

**Q.** And the “acute LD50” value (mice; intravenous)?
**A.** Its value is 19.5 mg/kg.

**Q.** What about the IC50 (HSV-1 [5]; [11]) of the same compound?
**A.** Its IC50 is no more than 1 mM.

**Q.** And the killing at 500 µM (HSV-1 [5]; read-out: inactivation of HSV)?
**A.** Its killing at 500 µM is greater than 90%.

**Q.** And the IC50 [6]?
**A.** The IC50 was no more than 1 mM.

**Q.** What about the “sites with herpes lesions” value (HSV-1, Stohr strain; 48 hours after inoculation, placebo 88 percent) of the same compound?
**A.** The value was 31% of the sites.

**Q.** And the “sites with herpes lesions” value (HSV-1, Stohr strain; by 72 hours)?
**A.** The value was 7% of the sites.

**Q.** What about the “Candida (yeast) infection” value (HSV-1 [7]) of the same compound?
**A.** The value was “a Candida (yeast) infection developed”.

**Q.** And the IC50 (influenza; [11])?
**A.** Its IC50 is no more than 1 mM.

**Q.** What about the killing at 500 µM (influenza; read-out: inactivation of influenza virus) of the same compound?
**A.** Its killing at 500 µM is roughly 80%.

**Q.** And the percent inactivated (poliovirus)?
**A.** The percent inactivated was “less than 50%”.

**Q.** What about the IC99 (HSV-2 [8]) of the same compound?
**A.** The IC99 was less than 1000 µM.

**Q.** And the detrimental adverse reactions (HSV-2 [9])?
**A.** Its detrimental adverse reactions is “No detrimental adverse reactions were observed”.

**Q.** And the hyperkeratosis (HSV-2 [9])?
**A.** The hyperkeratosis was “mild hyperkeratosis noted in some of the animals”.

**Q.** And the percent inactivated (rhinovirus)?
**A.** The percent inactivated was “less than 50%”.

**Q.** What about the IC50 (HSV-1 [1]) of the same compound?
**A.** The IC50 was 125 µM.

**Q.** And the IC50 [10]?
**A.** The IC50 was no more than 1 mM.

**Q.** With `CCCCOc1ccc(C(=O)CCN(CC)CC)cc1` [4'-Butoxy-3-diethylamino-propiophenone . HCl] as the compound, how does the IC50 (HSV-1 [1]) read?
**A.** Its IC50 is less than 125 µM.

**Q.** For `CCCCNc1ccc(C(=O)OCCN(C)C)cc1` [tetracaine . HCl], which IC50 (HSV-1 [1]) is on record?
**A.** Its IC50 is greater than 2000 µM.

**Q.** Which IC50 (HSV-1 [1]) does the source give for `O=C(CCN1CCCCC1)c1cccc(Cl)c1` [3'-Chloro-3-piperidino-propiophenone . HCl] here?
**A.** Its IC50 is 125 µM.

**Q.** Which IC50 (HSV-1 [1]) does the source give for `CCCCOc1ccc(OCCCN2CCOCC2)cc1` [pramoxine . HCl] here?
**A.** The IC50 was 675 µM.

**Q.** For `CC(C)COc1ccc(C(=O)CCN2CCCCC2)cc1` [4'-Isobutoxy-3-piperidino-propiophenone . HCl], which IC50 (HSV-1 [1]) is on record?
**A.** Its IC50 is 200 µM.

**Q.** For `CC(=O)C(CN1CCCCC1)c1ccccc1` (stereo not drawn) [3-Phenyl-4-piperidino-2-butanone . HCl], which IC50 (HSV-1 [1]) is on record?
**A.** Its IC50 is 550 µM.

**Q.** With `CCN(CC)CC(=O)Nc1c(C)cccc1C` [lidocaine . HCl] as the compound, how does the IC50 (HSV-1 [1]) read?
**A.** The IC50 was greater than 2000 µM.

**Q.** For `CCCOc1ccc(C(=O)OCCN(CC)CC)cc1N` [proparacaine . HCl], which IC50 (HSV-1 [1]) is on record?
**A.** The IC50 was greater than 2000 µM.

**Q.** For `CCCCOc1ccc(C(=O)C(C)C[N+]2(C)CCCCC2)cc1` (stereo not drawn) [1-[2-(4-butoxybenzoyl)-2-methylethyl]-1-methyl-piperidinium iodide], which IC50 (HSV-1 [1]) is on record?
**A.** Its IC50 is greater than 750 µM.

**Q.** Which IC50 (HSV-1 [1]) does the source give for `CCCCCCCCOc1ccc(C(=O)CCN2CCCCC2)cc1` [4'-n-Octyloxy-3-piperidino-propiophenone . HCl] here?
**A.** Its IC50 is less than 125 µM.

**Q.** With `CCCCOc1ccc(C(=O)CCN2CCOCC2)cc1` as the compound, how does the IC50 (HSV-1 [1]) read?
**A.** The IC50 was 125 µM.

**Q.** For `CCCCCCOc1ccc(C(=O)CCN2CCCCC2)cc1` [4'-Hexyloxy-3-piperidino-propiophenone . HCl], which IC50 (HSV-1 [1]) is on record?
**A.** The IC50 was less than 125 µM.

**Q.** With `CCCCCCCCCCOc1ccc(C(=O)CCN2CCCCC2)cc1` [4'-n-Decyloxy-3-piperidino-propiophenone . HCl] as the compound, how does the IC50 (HSV-1 [1]) read?
**A.** The IC50 was less than 125 µM.

**Q.** Which IC50 (HSV-1 [1]) does the source give for `CCCCOc1cc(C(=O)NCCN(CC)CC)c2ccccc2n1` [dibucaine . HCl] here?
**A.** The IC50 was 800 µM.
